Laboratory results published in PubChem BioAssay (NCI).
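In this assay, cells in 96-well plates receive the compound at five concentrations for 48 hours. Endpoints are linearly interpolated between the surrounding concentrations. The concentration for full growth arrest is given as TGI.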

Experiments:
Assay in all cases: growth of human tumour cells (NCI), 48 h
LOX IMVI melanoma = system: LOX IMVI melanoma
OVCAR-8 ovarian = system: OVCAR-8 ovarian
RXF 393 renal = system: RXF 393 renal
MDA-N = system: MDA-N
NCI-H460 lung = system: NCI-H460 lung
HOP-92 NSCLC = system: HOP-92 NSCLC
SF-268 CNS = system: SF-268 CNS
BT-549 breast = system: BT-549 breast
HL-60(TB) leukemia = system: HL-60(TB) leukemia
HCT-15 colon = system: HCT-15 colon

Compound | TGI (LOX IMVI melanoma) [µM] | TGI (OVCAR-8 ovarian) [µM] | TGI (RXF 393 renal) [µM] | TGI (MDA-N) [µM] | TGI (NCI-H460 lung) [µM] | TGI (HOP-92 NSCLC) [µM] | TGI (SF-268 CNS) [µM] | TGI (BT-549 breast) [µM] | TGI (HL-60(TB) leukemia) [µM] | TGI (HCT-15 colon) [µM]
Nc1ccc(C2SCC(=O)N2NS(=O)(=O)c2cccc(C(=O)O)c2)cc1 (stereo not drawn) | > 100 | > 100 | > 100 | > 100 | > 100 | > 100 | > 100 | > 100 | > 100 | > 100
COc1ccc(C=O)cc1OS(=O)(=O)C(F)(F)C(F)(F)C(F)(F)C(F)(F)F | 41.9 | > 100 | 59.8 | 44.7 | > 93.4 | 58.6 | > 100 | > 100 | 21.8 | > 100
O=C(NC(OCc1ccccc1)(C(F)(F)F)C(F)(F)F)OCc1ccccc1 | 27.6 | 30.1 | 25.3 | 28.5 | 29.6 | 27.8 | 32.2 | 28.7 | 40.8 | 26.7
CCOC(=O)c1cc([N+](=O)[O-])c(Sc2ncnc3nc[nH]c23)c([N+](=O)[O-])c1 | 17.9 | 17.9 | 23.3 | 15.1 | 25.6 | 7.85 | 17.8 | 20.1 | 23.4 | 6.57
COc1ccc(/C=C/C(=O)CCN2CCN(CCC(=O)/C=C/c3ccc(OC)cc3)CC2)cc1 | 11.1 | 42.4 | 17.2 | 10.5 | 23.1 | 34.5 | 41.7 | 39.9 | > 100 | 22.3
NS(=O)(=O)c1ccc(NC(=O)c2ccc3nc4ccccc4c(Nc4ccc(S(N)(=O)=O)cc4)c3c2)cc1 | > 100 | > 100 | > 100 | > 100 | > 100 | > 100 | > 100 | > 100 | > 100 | > 100
O=C(/C=C/c1cccc(Br)c1)N1CCN(CCOC(c2ccccc2)c2ccccc2)CC1 | 54.8 | > 100 | > 100 | > 100 | > 100 | 99.1 | > 100 | 84.2 | 46.6 | > 100
COc1ccc(Nc2cc(=O)[nH]c(=O)[nH]2)cc1 | > 100 | > 100 | > 100 | > 100 | > 100 | > 100 | > 100 | > 100 | > 100 | > 100
Cn1c(=S)[nH]c(N)c(Cc2ccccc2)c1=O | > 100 | > 100 | > 100 | > 100 | > 100 | 97.1 | > 100 | > 100 | > 100 | > 100
CC(=O)Oc1cc(-c2oc3cc(OC(C)=O)c(C4OC(CO)C(O)C(O)C4O)c(OC(C)=O)c3c(=O)c2O)c(OC(C)=O)cc1O (stereo not drawn) | > 100 | > 100 | > 100 | > 100 | > 100 | > 100 | – | > 100 | > 100 | > 100
c1cc(CSc2ncnc3nc[nH]c23)ccn1 | > 100 | > 100 | > 100 | > 100 | > 100 | > 100 | > 100 | > 100 | > 100 | > 100
OC(Cc1cc(CC(O)(C(F)(F)F)C(F)(F)F)nc(CC(O)(C(F)(F)F)C(F)(F)F)c1)(C(F)(F)F)C(F)(F)F | 1.34 | > 10 | 4.57 | 4.09 | 1.81 | 3.45 | 4.87 | 6.1 | > 10 | 3.95
Cc1c(C#N)c2nc3ccccc3n2c(=O)/c1=C/Nc1ccc(Cl)cc1 | > 100 | > 100 | 25.6 | > 100 | > 100 | 67.5 | > 100 | 99.6 | > 100 | > 100
S=C(S)NCCN1CCNCC1 | > 100 | 95.3 | 64.3 | > 100 | > 100 | > 100 | > 100 | > 100 | 8.01 | > 100
CN1CCc2c(sc3ncn(Nc4ccc(F)cc4)c(=N)c23)C1 | > 100 | > 100 | > 100 | > 100 | > 100 | > 100 | > 100 | > 100 | > 100 | > 100
CC/C=C\C=C/C(=O)N/C=C/CCC | > 100 | > 100 | > 100 | > 100 | > 100 | > 100 | > 100 | > 100 | > 100 | > 100
CN1CCN(c2n[nH]c(=O)c3c2nnn3C2CCCCC2)CC1 | > 100 | > 100 | > 100 | > 100 | > 100 | > 100 | > 100 | > 100 | > 100 | > 100

Compound | TGI (LOX IMVI melanoma) [µM] | TGI (OVCAR-8 ovarian) [µM] | TGI (RXF 393 renal) [µM] | TGI (MDA-N) [µM] | TGI (NCI-H460 lung) [µM] | TGI (HOP-92 NSCLC) [µM] | TGI (SF-268 CNS) [µM] | TGI (BT-549 breast) [µM] | TGI (HL-60(TB) leukemia) [µM] | TGI (HCT-15 colon) [µM]
CC(C)C(/C=C/c1ccc(Cl)cc1)=N\NC(=O)N/N=C(/C=C/c1ccc(Cl)cc1)C(C)C | – | 38 | 76.9 | > 100 | 54.8 | 56.9 | 41.3 | 97.9 | > 100 | > 100
O=C1CN(c2ccccc2)C(=O)CN1NCNN1CC(=O)N(c2ccccc2)CC1=O | – | > 100 | > 100 | > 100 | > 100 | > 100 | > 100 | > 100 | > 100 | > 100
Cc1cccc(N=N/C(=N\NC(=O)c2cc(Cl)ccc2O)c2ccc(N(CCC#N)CCC#N)cc2C)c1 | > 100 | > 100 | 97.3 | > 100 | 79.7 | 60.7 | > 100 | > 100 | 34.4 | 88.2
CC(=O)OCC1OC(O[C@H]2C=C[C@@H](C(=O)OCc3ccccc3)n3c(=O)n(-c4ccccc4)c(=O)n32)C(OC(C)=O)C(OC(C)=O)C1OC(C)=O (stereo partly drawn) | – | 7.41 | 4.07 | 7.1 | 3.05 | 3.9 | 4.23 | 3.29 | > 100 | 2.44
CC(C)C(=O)/C=C/c1c(Cl)cccc1Cl | 7.32 | 13.6 | 19 | 11.8 | 5.68 | 26.6 | 10.5 | 9.81 | > 100 | 17.8
COc1ccc2nc3cc(Cl)ccc3c(NCCCCCC(=O)NC(COc3ccc4ccc5cccnc5c4n3)COc3ccc4ccc5cccnc5c4n3)c2c1 | > 100 | > 100 | 39.3 | 45.7 | 19.1 | 44.1 | 34.9 | 3.55 | 27.2 | > 100
O=C(Nc1ccc(Cl)cc1)c1cc(S(=O)(=O)N2CCNNC2=O)c(S)cc1Cl | > 100 | > 100 | 53.2 | > 100 | > 100 | 96.1 | > 100 | > 100 | > 100 | > 100
Cn1c(=O)c2c(=O)cc(N)[nH]c2n(C)c1=O | > 100 | > 100 | > 100 | > 100 | > 100 | > 100 | > 100 | > 100 | > 100 | –
C=C(C)CCC(O)[C@](C)(O)[C@H]1[C@H](O)C[C@@]2(C)[C@@H]3CCc4c(cc(OC5OC(CO)C(O)C(O)C5O)c(O)c4C)C3(C)C(=O)C[C@]12C (stereo partly drawn) | > 100 | > 100 | > 100 | > 100 | > 100 | > 100 | > 100 | > 100 | – | > 100
O=CC1OC(=O)c2cc(O)c(O)c(O)c2-c2c(cc(O)c(O)c2O)C(=O)OC1C1OC(=O)c2cc(O)c(O)c(O)c2-c2c(O)c(O)c3oc(=O)c4c(c(O)c(O)c5oc(=O)c2c3c54)-c2c(cc(O)c(O)c2O)C(=O)OCC1O (stereo not drawn) | 29.2 | 41.2 | > 100 | 51.9 | > 100 | > 100 | > 100 | > 100 | > 100 | > 100
C=C1CC[C@@H]2[C@](C)(COC(=O)CCC(=O)O)CCC[C@@]2(C)[C@@H]1CCC1=CC(=O)OC1 | > 100 | > 100 | > 100 | > 100 | – | > 100 | > 100 | > 100 | > 100 | > 100
CCN(CC)CCSc1c(C(C)=O)c(=O)n(-c2ccccc2)c(=S)n1-c1ccccc1 | 9.04 | 10.9 | 3.94 | 20.9 | 50.1 | 5.8 | 35.8 | 30.8 | 8.71 | 8.86
C[C@@H]1CC[C@@]2(C)[C@H](C)/C(=C\COC(=O)/C=C/c3ccc(O)c(O)c3)CC[C@@]12C | 21.5 | 24.1 | 39.1 | 14.3 | 13.5 | 29.7 | 23.5 | 29 | 13.4 | 16.1
CCCCCCCCCCCCc1ccsc1-c1ccc(-c2ccc(-c3sccc3CCCCCCCCCCCC)s2)s1 | > 100 | > 100 | > 100 | > 100 | > 100 | > 100 | > 100 | > 100 | > 100 | > 100
C#CCn1c(=O)ccn(/C(=C/C(=O)OCC)C(=O)OCC)c1=O | 40.3 | 5.11 | 3.3 | 41.1 | 10.3 | 6.32 | 26.9 | 23.2 | > 52.9 | 7.8
CN(C)NC1=NS(=O)(=O)c2cc3c(=O)n(C)[nH]c3cc2S1 | > 10 | > 10 | > 10 | > 10 | > 10 | > 10 | > 10 | > 10 | > 10 | > 10
CCCCCCCCCCCCCCCC(=O)OC1C(O)C(O)C(O)C(O)C12CO2 (stereo not drawn) | 53.2 | 57.5 | > 100 | > 100 | > 100 | 56.1 | > 100 | > 100 | 45.7 | 63.5
